In patent publication US20080269267A1, “KINASE INHIBITORS USEFUL FOR THE TREATMENT OF MYLEOPROLIFIC DISEASES AND OTHER PROLIFERATIVE DISEASES” (Deciphera Pharmaceuticals, LLC, priority 2007, published 2008):
pIC50: −log10 of the molar value.

Legend:
[1] = target: T1, c-Kit kinase (SEQ ID NO:9) (Homo sapiens, UniProt P10721); assay: c-Kit kinase assay (pyruvate kinase/lactate dehydrogenase coupled); settings: <2 min preincubation at 22° C., ATP 200 μM; read-out: c-Kit Enzyme Assay, biochemical IC50
T1 construct: purchased ProQinase
Protocol: C-Kit Kinase (SEQ ID NO:9) Assay
Activity of c-Kit kinase (SEQ ID NO:9) was determined by following the production of ADP from the kinase reaction through coupling with the pyruvate kinase/lactate dehydrogenase system (e.g., Schindler, et al. Science (2000) 289, 1938-1942). In this assay, the oxidation of NADH (thus the decrease at A340 nm) was continuously monitored spectrophometrically. The reaction mixture ([…]) contained c-Kit (cKIT residues T544-V976, from ProQinase, 5.4 nM), polyE4Y (1 mg/ml), MgCl2 (10 mM), pyruvate kinase (4 units), lactate dehydrogenase (0.7 units), phosphoenol pyruvate (1 mM), and NADH (0.28 mM) in 90 mM Tris buffer containing 0.2% octyl-glucoside and 1% DMSO, pH 7.5. Test compounds were incubated with […] (SEQ ID NO:9) and other reaction reagents at 22° C. for <2 min before ATP (200 μM) was added to start the reaction. The absorption at 340 nm was monitored continuously for 0.5 hours at 30° C. on Polarstar Optima plate reader (BMG). The reaction rate was calculated using the 0 to 0.5 h time frame. Percent inhibition was obtained by comparison of reaction rate with that of a control (i.e. with no test compound). IC50 values were calculated from a series of percent inhibition values determined at a range of inhibitor concentrations using software routines as implemented in the GraphPad Prism software package.

[2] = target: T2, BaF3 cells transfected with T315I p210 BCR-Abl (Homo sapiens, UniProt P00519, T315I, cells depend on it); assay: Ba/F3 p210 T315I whole cell proliferation assay (Cell Titer Blue, 72 hours); type: cell-based; settings: 72 hours incubation; read-out: Ba/F3 p210 T315I whole cell proliferation assay, antiproliferation IC50
T2 construct: fused on or other part: P11274 (Breakpoint cluster region protein)
Protocol: (§1) BaF3 cells (parental or transfected with the following: wild type p210 BCR-Abl and T315I p210 BCR-Abl was obtained from Professor Richard Van Etten (New England Medical Center, Boston, Mass.). Briefly, cells were grown in RPMI 1640 supplemented with 10% characterized fetal bovine serum (HyClone, Logan, Utah) at 37 degrees Celsius, 5% CO2, 95% humidity. Cells were allowed to expand until reaching 80% saturation at which point they were subcultured or harvested for assay use.
(§2) A serial dilution of test compound was dispensed into a 96 well black clear bottom plate (Corning, Corning, N.Y.). For each cell line, three thousand cells were added per well in complete growth medium. Plates were incubated for 72 hours at 37 degrees Celsius, 5% CO2, 95% humidity. At the end of the incubation period Cell Titer Blue (Promega, Madison, Wis.) was added to each well and an additional 4.5 hour incubation at 37 degrees Celsius, 5% CO2, 95% humidity was performed. Plates were then read on a BMG Fluostar Optima (BMG, Durham, N.C.) using an excitation of 544 nm and an emission of 612 nm. Data was analyzed using Prism software (Graphpad, San Diego, Calif.) to calculate IC50's.

[3] = target: B-Raf(V600E) kinase (SEQ ID NO:11) (Homo sapiens, UniProt P15056, V600E); assay: B-Raf(V600E) kinase assay (pyruvate kinase/lactate dehydrogenase coupled, MEK1 substrate); settings: 1 h preincubation at 30° C., ATP 0.2 mM; read-out: B-Raf V600E Enzyme Assay, biochemical IC50
Protocol: B-Raf(V600E) Kinase Assay
The activity of B-Raf(V600E) kinase (SEQ ID NO:11) was determined by following the formation of ADP from the reaction through coupling with the pyruvate kinase/lactate dehydrogenase system (e.g., Schindler, et al. Science (2000) 289, 1938-1942). In this assay, the oxidation of NADH (thus the decrease at A340nm) was continuously monitored spectrophotometrically. The reaction mixture (100 μl) contained B-Raf(V600E) kinase (0.34 nM nominal concentration, SEQ ID NO:11), unphosphorylated, full-length MEK1 (42 nM, SEQ ID NO:12), MgCl2 (13 mM), pyruvate kinase (3.5 units), lactate dehydrogenase (5.5 units), phosphoenolpyruvate (1 mM), and NADH (0.28 mM), in 60 mM Tris buffer, containing 0.13% octyl-glucoside and 3.5% DMSO concentration at pH 7.5. The test compounds were incubated with the reaction mixture at 30° C. for 1 h. The reaction was initiated by adding ATP (0.2 mM, final concentration). The absorption at 340 nm was continuously monitored for 3 h at 30° C. on a Polarstar Optima plate reader (BMG). The reaction rate was calculated using the 0.5 h to 1.5 h time frame. Percent inhibition was obtained by comparison of reaction rate with that of a control (i.e. with no test compound). IC50 values were calculated from a series of percent inhibition values determined at a range of inhibitor concentrations using software routines as implemented in the GraphPad Prism software package.

[4] = target: T3, BaF3 cells transfected with wild type p210 BCR-Abl (Homo sapiens, UniProt P00519); assay: Ba/F3 p210 whole cell proliferation assay (Cell Titer Blue, 72 hours); type: cell-based; settings: 72 hours incubation; read-out: Ba/F3 p210 whole cell proliferation assay, antiproliferation IC50
T3 construct: fused on or other part: P11274 (Breakpoint cluster region protein)
Protocol: as §1, §2

B-Raf(V600E) kinase (SEQ ID NO:11), sequence (P15056 with tags, fused parts or gaps V600E): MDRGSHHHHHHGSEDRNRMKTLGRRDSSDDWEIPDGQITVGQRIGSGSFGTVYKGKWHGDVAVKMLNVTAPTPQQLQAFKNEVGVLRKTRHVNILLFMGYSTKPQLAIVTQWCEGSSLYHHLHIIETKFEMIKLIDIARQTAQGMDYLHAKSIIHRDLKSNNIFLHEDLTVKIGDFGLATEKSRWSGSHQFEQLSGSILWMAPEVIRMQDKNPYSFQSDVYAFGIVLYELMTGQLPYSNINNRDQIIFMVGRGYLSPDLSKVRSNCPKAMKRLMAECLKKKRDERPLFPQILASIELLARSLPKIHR
T1 sequence (P10721 with tags, fused parts or gaps): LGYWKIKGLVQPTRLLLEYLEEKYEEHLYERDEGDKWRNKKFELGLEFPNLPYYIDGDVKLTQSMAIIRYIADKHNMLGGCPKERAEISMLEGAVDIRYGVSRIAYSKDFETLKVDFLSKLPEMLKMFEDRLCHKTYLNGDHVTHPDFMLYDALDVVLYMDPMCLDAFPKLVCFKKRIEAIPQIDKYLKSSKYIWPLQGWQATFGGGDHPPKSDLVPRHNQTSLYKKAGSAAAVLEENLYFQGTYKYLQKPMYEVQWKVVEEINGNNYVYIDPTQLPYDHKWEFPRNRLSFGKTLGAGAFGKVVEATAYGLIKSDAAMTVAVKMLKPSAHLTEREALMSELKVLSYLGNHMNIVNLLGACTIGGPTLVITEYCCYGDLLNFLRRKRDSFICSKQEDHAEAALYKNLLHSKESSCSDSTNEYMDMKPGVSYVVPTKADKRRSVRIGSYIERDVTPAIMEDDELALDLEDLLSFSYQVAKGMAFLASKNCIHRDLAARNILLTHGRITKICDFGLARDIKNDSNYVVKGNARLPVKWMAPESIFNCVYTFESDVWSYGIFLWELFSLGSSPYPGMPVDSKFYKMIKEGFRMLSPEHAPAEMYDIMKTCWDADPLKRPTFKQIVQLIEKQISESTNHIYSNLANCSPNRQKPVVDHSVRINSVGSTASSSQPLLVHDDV

In the case of `CC(C)c1cc(NC(=O)Nc2ccc(Oc3ccnc(-c4cnn(C)c4)c3)c(F)c2F)n(-c2cccc(C#N)c2)n1` [Example 13, 1-(1-(3-cyanophenyl)-3-isopropyl-1H-pyrazol-5-yl)-3-(2,3-difluoro-4-(2-(1-methyl-1H-pyrazol-4-yl)pyridin-4-yloxy)phenyl)urea], the pIC50 [1] was over 7.00, the GI50 [2] was under 100 nM and the pIC50 [3] was over 7.00. For the same molecule, the GI50 [4] was under 100 nM.
`CCc1cc(NC(=O)Nc2ccc(Oc3ccnc(-c4cnn(C(C)C)c4)c3)cc2F)n(-c2cccc(C#N)c2)n1` [Example 17, 1-(1-(3-cyanophenyl)-3-ethyl-1H-pyrazol-5-yl)-3-(2-fluoro-4-(2-(1-isopropyl-1H-pyrazol-4-yl)pyridin-4-yloxy)phenyl)urea] showed a pIC50 [1] of over 7.00, a GI50 [2] of under 100 nM and a pIC50 [3] of over 5.00. For the same molecule, the GI50 [4] was under 100 nM.
